Test results as given in ChEMBL document CHEMBL1139194, “Antitumor agents. 256. Conjugation of paclitaxel with other antitumor agents: evaluation of novel conjugates as cytotoxic agents” (Bioorg Med Chem Lett, 2007).

Key:
1A9 [1] = test: Cytotoxicity against human 1A9 cells by sulforhodamine B assay; type: functional; details: read-out: ED50 (the source's name)
[2] = Cytotoxicity against multi drug-resistant human KBVIN cells by sulforhodamine B assay; type: functional; details: read-out: ED50 (the source's name)
[3] = Cytotoxicity against human MRC5 cells at 10 ug/mL by sulforhodamine B assay; type: cell-based; details: read-out: Inhibition
HUVEC = test: Antiangiogenesis activity against HUVEC cells; type: functional; details: Homo sapiens, read-out: ED50 (the source's name)
KB [4] = test: Cytotoxicity against human KB cells by sulforhodamine B assay; type: functional; details: read-out: ED50 (the source's name)
PC-3 [5] = test: Cytotoxicity against human PC3 cells by sulforhodamine B assay; type: functional; details: read-out: ED50 (the source's name)
A549 [6] = test: Cytotoxicity against human A549 cells by sulforhodamine B assay; type: functional; details: read-out: ED50 (the source's name)
MCF7 [7] = test: Cytotoxicity against human MCF7 cells by sulforhodamine B assay; type: functional; details: read-out: ED50 (the source's name)
LNCaP [8] = test: Cytotoxicity against human LNCAP cells by sulforhodamine B assay; type: functional; details: read-out: ED50 (the source's name)
DU-145 [9] = test: Cytotoxicity against human DU145 cells by sulforhodamine B assay; type: functional; details: read-out: ED50 (the source's name)
PC-3 [10] = test: Cytotoxicity against human PC3 cells at 20 ug/mL by sulforhodamine B assay; type: functional
MCF7 [11] = test: Cytotoxicity against human MCF7 cells at 20 ug/mL by sulforhodamine B assay; type: functional
A549 [12] = test: Cytotoxicity against human A549 cells at 20 ug/mL by sulforhodamine B assay; type: functional
1A9 [13] = test: Cytotoxicity against human 1A9 cells at 20 ug/mL by sulforhodamine B assay; type: functional
DU-145 [14] = test: Cytotoxicity against human DU145 cells at 20 ug/mL by sulforhodamine B assay; type: functional
KB [15] = test: Cytotoxicity against human KB cells at 20 ug/mL by sulforhodamine B assay; type: functional
LNCaP [16] = test: Cytotoxicity against human LNCAP cells at 20 ug/mL by sulforhodamine B assay; type: functional
[17] = Cytotoxicity against multi drug-resistant human KBVIN cells at 20 ug/mL by sulforhodamine B assay; type: functional

SMILES | EC50 (1A9 [1]) [nM] | EC50 [2] [nM] | cytotoxicity at 10 ug/mL [3] [%] | EC50 (HUVEC) [nM] | EC50 (KB [4]) [nM] | EC50 (PC-3 [5]) [nM] | EC50 (A549 [6]) [nM] | EC50 (MCF7 [7]) [nM] | EC50 (LNCaP [8]) [nM] | EC50 (DU-145 [9]) [nM] | inhibition at 20 µg/mL (PC-3 [10]) [%] | inhibition at 20 µg/mL (MCF7 [11]) [%] | inhibition at 20 µg/mL (A549 [12]) [%] | inhibition at 20 µg/mL (1A9 [13]) [%] | inhibition at 20 µg/mL (DU-145 [14]) [%] | inhibition at 20 µg/mL (KB [15]) [%] | inhibition at 20 µg/mL (LNCaP [16]) [%] | inhibition at 20 µg/mL [17] [%]
COc1cc([C@@H]2c3cc4c(cc3[C@@H](Nc3ccc(C(=O)NCCC(=O)O[C@@H](C(=O)O[C@H]5C[C@@]6(O)[C@@H](OC(=O)c7ccccc7)[C@@H]7[C@]8(OC(C)=O)CO[C@@H]8C[C@H](O)[C@@]7(C)C(=O)[C@H](OC(C)=O)C(=C5C)C6(C)C)[C@@H](NC(=O)c5ccccc5)c5ccccc5)cc3)[C@H]3COC(=O)[C@H]23)OCO4)cc(OC)c1O | 2.9 | 9960 | < 50 | 4.93 | 8.4 | 12.1 | 10.1 | 6.4 | 4.2 | 8.6 |  |  |  |  |  |  |  | 
CC1(C)[C@@H](O)CC[C@]2(C)[C@H]3C(=O)C=C4[C@@H]5C[C@@](C)(C(=O)O)CC[C@]5(C)CC[C@@]4(C)[C@]3(C)CC[C@@H]12 [ENOXOLONE] |  |  |  |  |  |  |  |  |  |  | < 50 | < 50 | < 50 | < 50 | < 50 | < 50 | < 50 | < 50
